# Laboratory results taken from PMC5608804, “Stepwise Evolution Improves Identification of Diverse Peptides Binding to a Protein Target” (Scientific Reports, 2017).
# Target: T1, streptavidin (Streptomyces avidinii, UniProt P22629)
# T1 construct: purchased GE Healthcare (Little Chalfont, UK)
# Assay: Cy5-streptavidin binding on HotSpot discovery array, 5-mer L-peptide library
# Conditions: 5-mer L-peptide library array, Cy5-streptavidin; from average of three arrays
# Outline: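 Array of 2,476,099 5-mer peptides (19 amino acids, no cysteine) with Gly-Ser linkers, probed overnight at 4 °C with 0.5 µg/ml Cy5-streptavidin in Tris pH 7.4 buffer containing casein or BSA plus Tween-20. Cy5 fluorescence read at 635 nm; peptides selected by signal-to-background >4 across three arrays.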
# T1 sequence (P22629 25-183): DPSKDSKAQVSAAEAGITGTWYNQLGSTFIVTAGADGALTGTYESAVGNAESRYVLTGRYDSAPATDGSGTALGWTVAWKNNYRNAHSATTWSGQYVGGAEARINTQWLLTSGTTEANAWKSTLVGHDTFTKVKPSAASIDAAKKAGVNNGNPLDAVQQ
row,Substance,S/B (signal to background ratio)
1,VHPQN,153.6
2,HQHPQ,145.4
3,FPHPQ,173.5
4,WHPQV,137.6
5,TPHPQ,142.6
6,WSHPM,129.1
7,YMHPQ,181.7
8,MYHPQ,182.6
9,FHPMN,26.9
10,HHPMY,20.0
11,IFHPQ,166.8
12,NHPQI,21.1
13,TMHPQ,120.6
14,AGHPQ,137.1
15,YWHPM,54.2
16,WHPMF,27.4
17,LWHPQ,177.2
18,ALHPM,39.7
19,WHHPM,129.3
20,AMHPQ,124.0
21,THPQG,125.0
22,MFHPQ,198.9
23,MHPQN,120.0

row,Substance,S/B (signal to background ratio)
1,MWHPQ,192.7
2,HSHPQ,136.9
3,HPQNK,28.4
4,PKHPM,19.4
5,PYHPM,54.5
6,RHHPQ,148.9
7,LHPMA,41.0
8,ALHPQ,123.6
9,YYHPQ,190.0
10,EHPQF,53.2
11,SHPQM,37.7
12,GQHPQ,134.5
13,HGHPQ,129.3
14,AHPQQ,34.0
15,GHPQY,40.1
16,ISHPQ,142.0
17,AAHPQ,123.9
18,HPQHG,57.1
19,TGHPM,53.4
20,WWHPM,52.3
21,QRHPM,57.2
22,IAHPQ,136.2
23,ATHPQ,135.7

row,Substance,S/B (signal to background ratio)
1,MKHPM,20.4
2,FHPMS,46.0
3,FYHPQ,202.7
4,KHPQF,52.9
5,APHPQ,142.8
6,HPMFG,21.9
7,ENHPM,23.5
8,RRHPM,31.6
9,HPQVR,28.4
10,RPHPQ,133.3
11,GHHPQ,149.8
12,WHPQG,184.5
13,HMHPQ,133.8
14,RNHPQ,136.2
15,YQHPQ,172.3
16,HPQAF,40.6
17,EHPQY,22.3
18,KYHPQ,140.2
19,HPQTG,28.1
20,MQHPQ,157.5
21,LPHPQ,180.6
22,FHPQN,168.8
23,LAQFH [L-amino acid 5-mer array peptide],39.7

row,Substance,S/B (signal to background ratio)
1,HPMSG,45.4
2,NHHPQ,128.2
3,KHPQV,33.0
4,QSHPM,42.7
5,HPMGN,22.1
6,RFHPQ,161.9
7,WNHPQ,215.8
8,RLHPQ,137.3
9,DHPQH,31.2
10,FLHPQ,145.5
11,QHHPQ,136.3
12,LAVYH [L-amino acid 5-mer array peptide],27.0
13,MHPMS,25.8
14,LTHPQ,150.0
15,RLHPM,33.8
16,AMHPM,42.8
17,LVHPQ,129.9
18,LGQFH [L-amino acid 5-mer array peptide],21.5
19,FSHPQ,192.9
20,PHPQA,128.7
21,NAHPQ,121.9
22,TNHPM,57.8
23,VDHPM,26.0

# Same assay, conditions: 5-mer L-peptide library array, Cy5-streptavidin; from the average of three arrays
row,Substance,S/B (signal to background ratio)
1,THPQS,70.8
2,HPQMG,59.2
3,HPQFA,113.5
4,QHPQS,87.0
5,QNHPM,58.4
6,KLHPQ,71.4
7,DMHPQ,69.3
8,NHPQS,70.7
9,WFHPM,87.4
10,YDHPM,61.8
11,YFHPM,69.8
12,EYHPQ,96.9
13,DHPQA,83.3
14,HHPQG,108.6
15,WWHPQ,111.4
16,VRHPM,64.0
17,FHPQM,58.1
18,IHPQG,85.9
19,DYHPQ,103.8
20,YDHPQ,116.2
21,QTHPQ,90.7
22,FVHPM,72.0
23,SFHPM,65.3
24,VTHPQ,113.4

row,Substance,S/B (signal to background ratio)
1,VIHPQ,83.6
2,FHPMG,59.2
3,RRHPQ,103.0
4,MDHPQ,88.9
5,GRHPM,62.1
6,WMHPM,117.2
7,DSHPQ,74.0
8,HPQVP,62.1
9,YEHPQ,103.2
10,HPQGS,105.2
11,VHPQG,101.6
12,LAHPM,62.9
13,NHPQV,81.6
14,HPQAP,82.5
15,HHPMA,76.0
16,ESHPQ,64.3
17,MHPMA,62.7
18,KFHPQ,81.9
19,TKHPQ,61.5
20,VHPQV,61.3
21,HHHPM,67.1
22,LWHPM,64.6
23,KSHPQ,80.0
24,MHPQF,107.7

# Same assay, conditions: 5-mer L-peptide library, from the average of three arrays
row,Substance,S/B (signal to background ratio)
1,NWEAI [L-amino acid 5-mer array peptide],4.1
2,NHPMK,4.7
3,NHPQL,4.1
4,YHPMI,4.8
5,KHPMF,4.5
6,NWEAV [L-amino acid 5-mer array peptide],4.1
7,HPQPQ,4.4
8,WDAWE [L-amino acid 5-mer array peptide],4.0
9,HPQSK,4.7
10,HPMMF,5.1
11,HPWRN,4.7
12,THPQL,4.2
13,HPMRT,4.3
14,HPQRI,5.0
15,HPQTV,4.3
16,EVHPM,5.0
17,HPMKP,4.6
18,MVQHF [L-amino acid 5-mer array peptide],5.2
19,HPAFQ,4.5

# Same assay, conditions: average of three arrays, L-peptide 5-mer library
row,Substance,S/B (signal to background ratio)
1,LGIYH [L-amino acid 5-mer array peptide],10.5
2,NWEAI [L-amino acid 5-mer array peptide],4.1
3,DPFGW [L-amino acid 5-mer array peptide],10.1
4,FDTWL [L-amino acid 5-mer array peptide],7.3
5,TPSFG [L-amino acid 5-mer array peptide],6.3
6,RFDLL [L-amino acid 5-mer array peptide],5.2
7,NWEAV [L-amino acid 5-mer array peptide],4.1
8,WDAWE [L-amino acid 5-mer array peptide],4.0
9,MPGHF [L-amino acid 5-mer array peptide],5.6
10,LAQFH [L-amino acid 5-mer array peptide],39.7
11,FDSWL [L-amino acid 5-mer array peptide],8.0
12,LAVYH [L-amino acid 5-mer array peptide],27.0
13,MVQHF [L-amino acid 5-mer array peptide],5.2
14,LGQFH [L-amino acid 5-mer array peptide],21.5

# Same assay, conditions: signal to background ratio; 5-mer L-peptide library array, Cy5-streptavidin
row,Substance,S/B
1,LGIYH [L-amino acid 5-mer array peptide],10.5
2,KHPQT,7.6
3,NHPQW,16.4
4,MHPMM,9.8
5,HPQRV,5.3
6,HPMMW,5.7
7,DPFGW [L-amino acid 5-mer array peptide],10.1
8,FDTWL [L-amino acid 5-mer array peptide],7.3
9,AHPQT,18.8
10,TPSFG [L-amino acid 5-mer array peptide],6.3
11,PHPQK,14.7
12,HPMNR,5.6
13,LHPMR,7.0
14,EIHPM,9.9
15,YHPMY,12.0
16,HPMRG,9.3
17,RFDLL [L-amino acid 5-mer array peptide],5.2
18,HPMFW,6.5
19,QHPQK,15.8
20,HPMVF,5.3
21,HHPMM,18.7
22,MPGHF [L-amino acid 5-mer array peptide],5.6
23,HPMYS,8.6
24,GHPQK,13.3
25,LHPMM,5.2
26,AHPMF,10.8
27,FDSWL [L-amino acid 5-mer array peptide],8.0
28,IHPQT,13.6
29,HPQYW,5.7
